# Source: patent publication US6562867B2, “Carbamate compounds for use in preventing or treating bipolar disorder” (Ortho-McNeil Pharmaceutical, Inc., priority 2001, dated 2003)
# What was measured:
# [1] = system: electrically kindled rats (Stage 5 seizures); experiment: Electrically kindled rat model (corneal electrodes); format: in vivo, Wistar rats; details: one hour after administration; for % Protection: 100% minus % Seizure Activity
# Text: A similar effect for the enantiomer of Formula (Ib) was also found in the electrically kindled rat model (Racine R., J. Clin. Neurophysiol., 1972, 32, 281-294), an alternative model of kindling. Electrical stimulation through corneal electrodes induces a progression of behavioral seizures similar to those observed in hippocampal kindling.
# Adult male Wistar rats were electrically kindled for 4 seconds (8 mA; 60 Hz) via corneal electrodes for a minimum of Stage 5 seizures.
# One hour after oral administration, % Seizure Activity was assessed as a combined score of seizure activity for each animal for the total number of animals per group; % Protection is derived by subtracting % Seizure Activity om 100%.
# [2] = system: hippocampal kindled rats; experiment: Hippocampal kindled rat model; format: in vivo, Sprague-Dawley rats; details: for # Protected/# Tested / Afterdischarge Duration (sec) ± S.E.M. / Seizure Score ± S.E.M.: time of test 15 min; for Seizure Score ± S.E.M.: stages 1-5
# Protocol: In the hippocampal kindling model (Lothman E W, et al., Epilepsy Res., 1988, 2(6) 367-79), adult male Sprague-Dawley rats are surgically implanted with bipolar electrodes. Seizure score was assessed using the following stages: (1) mouth and facial movements; (2) above symptoms plus head nodding; (3) above symptoms plus forelimb clonus;(4) above symptoms plus rearing; and (5) above symptoms plus falling.
smiles,measurement,setting,value
NC(=O)OC[C@@H](O)c1ccccc1Cl [Formula (Ib)],% Seizure Activity,[1]; 1 mg/kg oral,93.3%
same,% Protection,[1]; 1 mg/kg oral,6.7%
same,% Seizure Activity,[1]; 3 mg/kg oral,46.7%
same,% Protection,[1]; 3 mg/kg oral,53.3%
same,% Seizure Activity,[1]; 10 mg/kg oral,33.3%
same,% Protection,[1]; 10 mg/kg oral,66.7%
same,% Seizure Activity,[1]; 100 mg/kg oral,0%
same,% Protection,[1]; 100 mg/kg oral,100%
same,ED50,"[1]; Rattus norvegicus, 1 h, oral, expression of Stage 5 seizures",4.2 mg/kg
same,# Protected/# Tested,[2]; 12.5 mg/kg intraperitoneally,2/7
same,Afterdischarge Duration (sec) ± S.E.M.,[2]; 12.5 mg/kg intraperitoneally,52.00 ± 10.88 s
same,Seizure Score ± S.E.M.,[2]; 12.5 mg/kg intraperitoneally,3.43 ± 0.53
same,# Protected/# Tested,[2]; 25 mg/kg intraperitoneally,4/7
same,Afterdischarge Duration (sec) ± S.E.M.,[2]; 25 mg/kg intraperitoneally,38.29 ± 13.48 s
same,Seizure Score ± S.E.M.,[2]; 25 mg/kg intraperitoneally,2.29 ± 0.78
same,# Protected/# Tested,[2]; 37.5 mg/kg intraperitoneally,5/7
same,Afterdischarge Duration (sec) ± S.E.M.,[2]; 37.5 mg/kg intraperitoneally,38.00 ± 11.87 s
same,Seizure Score ± S.E.M.,[2]; 37.5 mg/kg intraperitoneally,2.29 ± 0.75
same,ED50,"[2]; Rattus norvegicus, ip, intraperitoneally, 95% confidence interval of 12.5 to 37.5 mg/kg, read-out: calculated ED50 for reduction of the seizure score from 5 to 3 or less",~22.5 mg/kg
